Series [1] in a line: Staining of AD brain sections (fluorescence microscopy). More on the design: species or system human. Particulars: in words. The method, then: 26: 241-242 (1973) with 1 mM 1,4-bis(3-carboxy-4-hydroxyphenylethenyl)-benzene substituted for Congo red, but the procedure was otherwise identical. Stained slides were examined using fluorescence microscopy.
(§1) The staining method was that of Stokes and Trickey, J. Clin. Pathol. 26: 241-242 (1973) with 1,4-bis(3-carboxy-4-hydroxyphenylethenyl)-benzene substituted for Congo red.

Series [2] can be described thus: Staining of transgenic mouse brain section. The note with it: in words.
Description: FIG. 11. […] 26: 241-242 (1973). […] The photomicrograph was obtained using fluorescence microscopy.
as §1

The target in series [3] is T1, Aβ(10-43) (Homo sapiens, UniProt P05067). Kind of series: Inhibition of [14C] Chrysamine G binding to Aβ(10-43). Particulars: for binding activity to Aβ / Ki relative to Chrysamine G / potency/affinity relative to reference compound: in words; for potency/affinity relative to reference compound: vs Chrysamine G or, for Chrysamine G, vs Congo red; for energy of binding: ΔG=-RT ln Keq, from KD (Chrysamine G) or Ki (aniline derivative).
T1 sequence (P05067 681-714): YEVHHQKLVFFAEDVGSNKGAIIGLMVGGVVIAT

Series [4] is described as follows: [14C] Chrysamine G binding to Down's syndrome brain homogenates. More on the design: species or system human. Particulars: two patients, FIG. 9C. An excerpt:
FIGS. 9A, 9B and 9C. […] The data points represent the ratio of [^14 C] […] Horizontal bars represent the mean and error bars represent the standard error for control (circles), and AD brain (diamonds in 9A and 9B). […] Asterisks indicate significant differences compared to control (*p<0.05; **p<0.001). The diamonds in 9C represent a brain from a Down's syndrome patient not yet symptomatic with AD. The triangles in 9C represent a Down's syndrome patient who had developed AD as do the vast majority of Down's syndrome patients by their 40's.

Series [5] can be described thus: Scatchard analysis of [14C]CG binding to AD brain homogenates.
Series [6] is described as follows: Tissue levels after i.v. injection of [14C] Chrysamine G in mice (blood-brain barrier). It is filed as in vivo, Swiss-Webster mice. The note with it: 15 to 35 min after i.v. injection.
Series [7] can be described thus: Metabolism of [14C] Chrysamine G in mouse brain and liver.
The next series relates to PC-12 cells. Kind of series: Protection from Aβ(25-35)-induced toxicity in PC-12 cells (MTT reduction). The note with it: for protective effects in cells incubated with 1 μM Aβ(25-35): Chrysamine G at 0.1 and 1 μM, FIG. 14; for protective effect against Aβ(25-35)-induced decrease in MTT reduction: in words, FIGS. 12 and 13.
Series [8] concerns the target T1, Aβ(10-43). Kind of series: Scatchard analysis of [14C] Chrysamine G binding to synthetic Aβ(10-43). Particulars: read-out: dissociation constant; approximately; whether by Scatchard analysis, kinetic methods, or inhibition of binding.
Series [9] in a line: Total [14C] Chrysamine G binding to control brain homogenates. On the set-up: species or system human.
Series [10] is described as follows: Total [14C] Chrysamine G binding to AD brain homogenates. More on the design: species or system human.
Series [11] in a line: Scatchard analysis of [14C]CG binding to control brain homogenates.
Series [12] in a line: Correlation of [14C]CG binding with neuritic plaque (NP) and neurofibrillary tangle (NFT) counts. More on the design: species or system human. The method, then:
FIG. 8B is a graph illustrating the correlation between the amount of [^14 C] […] The filled symbols and heavy lines indicate brains without amyloid angiopathy, the open symbols and dashed lines indicate brains with amyloid angiopathy. The y-axis represents total, absolute [^14 C] […] Approximately 75 μg protein and 150 nM [^14 C] Chrysamine G were used.

For series [13] the following is noted: guinea pigs; Tubis et al.; cited from earlier work.
For the next series, the system named is amylin. Particulars: in words; cited from earlier work.
Series [14] can be described thus: Octanol/water partitioning. Particulars: 1-octanol / phosphate buffered saline pH 7.4.
The subject of series [15] is Aβ. The note with it: cited from earlier work.
The conditions of series [16]: in words; Tubis et al.; cited from earlier work.
The test system of series [17] is Aβ. The note with it: in words; cited from earlier work.

We go through 14 molecules from patent US6168776A (priority 1997, dated 2001).

Molecules are shown by their SMILES. Entries after “also recorded” stand apart in the source; their conditions may differ. Where only a bound is given, the exact number is not on record here.

Consider `O=C(O)c1cc(C=Cc2ccc(C=Cc3ccc(O)c(C(=O)O)c3)cc2)ccc1O` [1,4-bis(3-carboxy-4-hydroxyphenylethenyl)-benzene], for which the “staining relative to Chrysamine G, Congo red, or Thioflavin S” value in [1] (human AD brain) is “much more intense than that observed with Chrysamine G, Congo red, or Thioflavin S”. The “staining of human AD brain” value in [1] was “Numerous amyloid plaques and neuropil threads can be readily identified as well as a neurofibrillary tangle; also recorded: Visible are a large number of neuritic plaques, a neurofibrillary tangle and frequent neuropil threads”. Moreover, in series [2], the “staining of plaque in transgenic mouse brain” value is given as “intensely stained plaque”.
For `O=C(O)c1cc(N=Nc2ccc(-c3ccc(N=Nc4ccc(O)c(C(=O)O)c4)cc3S(=O)(=O)O)c(S(=O)(=O)O)c2)ccc1O` [2,2'-(SO3)2 CG], the “binding activity to Aβ” value at Aβ(10-43) [3] was “inactivity”.
On to `O=C(O)c1cc(N=Nc2ccc(-c3ccc(N=Nc4ccc(O)c(C(=O)O)c4)c(C(=O)O)c3)cc2C(=O)O)ccc1O` [3,3'-(COOH)2 CG], for which, on Aβ(10-43) [3] (vs Chrysamine G), the “loss of activity from Chrysamine G (fold)” value is on record as 7 fold.
Turning to `O=C(O)c1cc(N=Nc2ccc(-c3ccc(N=Nc4ccc(O)c(C(=O)O)c4)c(Br)c3)cc2Br)ccc1O` [3,3'-Br2 CG], on Aβ(10-43) [3], the “Ki relative to Chrysamine G” value is on record as “about half that of Chrysamine G”.
`O=C(O)c1cc(N=Nc2ccc(-c3ccc(N=Nc4ccc(O)c(C(=O)O)c4)c(Cl)c3)cc2Cl)ccc1O` [3,3'-Cl2 CG]: on Aβ(10-43) [3], the “Ki relative to Chrysamine G” value is given as “about half that of Chrysamine G”.
For `O=C(O)c1cc(N=Nc2ccc(-c3ccc(N=Nc4ccc(O)c(C(=O)O)c4)c(I)c3)cc2I)ccc1O` [3,3'-I2 CG], the “Ki relative to Chrysamine G” value at Aβ(10-43) [3] is “about half that of Chrysamine G”.
`O=C(O)c1cc(N=Nc2ccc(-c3ccc(N=Nc4ccc(O)c(C(=O)O)c4)c(I)c3)cc2)ccc1O` [3-ICG]: the “potency/affinity relative to reference compound” value on Aβ(10-43) [3] was “slightly more potent than Chrysamine G”.
Still for that read-out and setting: then `O=C(O)c1cc(F)cc(N=Nc2ccc(-c3ccc(N=Nc4cc(F)cc(C(=O)O)c4O)cc3)cc2)c1O` [(5-FSA)CG], with “one-third as potent”; and `O=C(O)c1c(O)ccc(N=Nc2ccc(-c3ccc(N=Nc4ccc(O)c(C(=O)O)c4O)cc3)cc2)c1O` [(6-OHSA)CG], with “highest affinity compound in this series”.
On to `O=C(O)c1cc(N=Nc2ccc(-c3ccc(N=Nc4ccc(O)c(C(=O)O)c4)cc3)cc2)ccc1O` [Chrysamine G, 4,4'-bis(3-carboxy-4-hydroxyphenylazo)-biphenyl], for which the “binding in Down's syndrome brain vs control” value in series [4] is on record as “above the control range”. In addition, the “Bmax (Table 1)” value in series [5] (AD, n = 5) is listed as 0.784 ± .061 pmol/μg prot; in series [11] (Control, n = 6), 0.576 ± .092 pmol/μg prot. The “Bmax in AD brain higher than control” value in series [5] (not significant (p=0.09)) was 36%. The “KD in AD brain lower than control” value in series [5] (not significant (p=0.29)) amounted to 16%. In addition, the Bmax in [5] (typical AD brain sample, 48 NP/×200, FIG. 4B) worked out at 790 fmol/μg protein; in series [11] (typical control brain sample, FIG. 4B), 614 fmol/μg protein. In addition, the “radioactivity in brain over time” value in [6] was “stayed nearly constant”. Besides, in series [7] (60 min, in words), the “radioactivity that is unchanged Chrysamine G” value is listed as “essentially all”. For the same molecule, the fraction remaining at 1 h in series [7] (mouse, iv, 0.05 uCi/g) is more than 95%. Further, the “concentration range showing protective effects” value in the series on PC-12 cells (Aβ(25-35)) lay within 0.1 to 1.0 µM. For the same molecule, the “protective effects in cells incubated with 1 μM Aβ(25-35)” value with PC-12 cells is “protective effects at 0.1 and 1 μM”. Moreover, the “protective effect against Aβ(25-35)-induced decrease in MTT reduction” value with PC-12 cells is given as “dose-dependent, protective effect; also recorded: protective effect which is dependent on both the concentration of Aβ(25-35) (FIG. 12) as well as the concentration of Chrysamine G; also recorded: prevents Aβ-induced cytotoxicity”. For the same molecule, the “effect on MTT reduction in the absence of Aβ(25-35)” value with PC-12 cells (vs control, FIG. 13) is listed as “no significant difference”. For the same molecule, on Aβ(10-43) [8], the Kd was 250 to 400 nM. The total binding came to 75 ± 13 fmol/μg protein in series [9] (Cerebellum, Control (n = 8)); 58 ± 8 fmol/μg protein in series [9] (Frontal Pole, Control (n = 6)); 73 ± 11 fmol/μg protein in series [9] (Head of Caudate, Control (n = 4)); 76 ± 13 fmol/μg protein in series [9] (Inferior Parietal, Control (n = 8)); 64 ± 16 fmol/μg protein in [9] (Occipital, Control (n = 8)); 66 ± 17 fmol/μg protein in [9] (Superior Temporal, Control (n = 8)). For the same molecule, the total binding in [9] (Superior/Middle Frontal, Control (n = 8)) was found to be 54 ± 10 fmol/μg protein; in series [10] (Cerebellum, AD (n = 11)), 73 ± 9 fmol/μg protein; in [10] (Frontal Pole, AD (n = 10), p < 0.006), 124 ± 16 fmol/μg protein; in series [10] (Head of Caudate, AD (n = 7), p = 0.14), 123 ± 22 fmol/μg protein; in series [10] (Inferior Parietal, AD (n = 11), p < 0.03), 137 ± 19 fmol/μg protein; in [10] (Occipital, AD (n = 11), p = 0.1) it was 95 ± 12 fmol/μg protein. Moreover, the total binding in series [10] (Superior Temporal, AD (n = 11), p < 0.02) came to 121 ± 14 fmol/μg protein; in series [10] (Superior/Middle Frontal, AD (n = 11), p < 0.005), 130 ± 21 fmol/μg protein. For the same molecule, the “saturable (specific) binding, share of total binding” value in [10] (AD brain homogenates) was 60-80%. The “saturable and total binding vs control” value in series [10] (in words) was “greater in AD brain than in control”. Besides, the “correlation of binding with NPs (r)” value in series [12] (AD brains alone, p=0.007) is 0.59; in series [12] (controls included, p=0.001) it was 0.69. The “correlation of binding with NFTs (r)” value is listed as 0.50 in [12] (AD brains alone, p=0.026) and 0.60 in series [12] (controls included, p=0.001). Also, the “correlation of binding with NP counts (r)” value came to 0.49 in series [12] (brains with cerebrovascular amyloid deposits, p=0.15) and 0.79 in series [12] (brains without amyloid angiopathy, p=0.01). In addition, the energy of binding entry at Aβ(10-43) [3] was “roughly 38 KJ/mole”.
Consider `Nc1c(/N=N/c2ccc(-c3ccc(/N=N/c4cc(S(=O)(=O)O)c5ccccc5c4N)cc3)cc2)cc(S(=O)(=O)O)c2ccccc12` [Congo red], for which the brain/kidney ratio entry in [13] is recorded as “approximately 0.07”. For the same molecule, the “effect on amylin toxicity to pancreatic islet cells” value with amylin is recorded as “inhibit pancreatic islet cell toxicity of diabetes-associated amylin; also recorded: protect pancreatic islet cells from the toxicity caused by amylin”. Further, in series [14], the octanol/water partition coefficient came out at 0.665±0.037. In the series on Aβ [15] (in vitro, in words), the “effect on Aβ-induced neurotoxicity and cell degeneration” value was “inhibits fibrillar Aβ neurotoxicity; also recorded: inhibits Aβ-induced neurotoxicity and cell degeneration in vitro”. Moreover, in the series with Aβ [15] (literature), the “concentration for complete protection from Aβ-induced toxicity” value is not above 20 µM and the “concentration over which Aβ-induced toxicity is protected against” value is given as “over 2 μM”. Further, in series [16], the “crossing of the blood-brain barrier” value is “does not cross the blood-brain barrier well”. Further, in the series on Aβ [17], the “effect on aggregation of Aβ” value is recorded as “does inhibit aggregation of Aβ”.
For the molecule `O=C(O)c1cc(N=Nc2ccccc2)ccc1O` [aniline derivative], on Aβ(10-43) [3], the “binding activity to Aβ” value is reported as “decrease in affinity” and the energy of binding was 23 kJ/mol.
On to `Oc1ccc(N=Nc2ccc(-c3ccc(N=Nc4ccc(O)cc4)cc3)cc2)cc1` [phenol derivative], for which, in the series with PC-12 cells, the “protective effects in cells incubated with 1 μM Aβ(25-35)” value was “no protective effects, and perhaps enhanced the toxicity of Aβ”; the “protective effect against Aβ(25-35)-induced decrease in MTT reduction” value is “does not prevent Aβ-induced cytotoxicity”. Also, at Aβ(10-43) [3], the “binding activity to Aβ” value is given as “completely destroyed binding affinity; also recorded: does not bind to synthetic Aβ”.
With `O=C(O)c1ccccc1O` [salicylic acid], on Aβ(10-43) [3], the “binding activity to Aβ” value is “total lack of binding activity; also recorded: inactivity”.
